Target: T1, caspase-6/(VEID)2R110 Michaelis complex (Homo sapiens, UniProt P55212, C163A)
T1 construct: Avi-tagged zymogen C163A-caspase-6 was processed to mature C163A-caspase-6 by the addition of active caspase-3 and caspase-6; made in house
T1 sequence (P55212 24-179 C163A): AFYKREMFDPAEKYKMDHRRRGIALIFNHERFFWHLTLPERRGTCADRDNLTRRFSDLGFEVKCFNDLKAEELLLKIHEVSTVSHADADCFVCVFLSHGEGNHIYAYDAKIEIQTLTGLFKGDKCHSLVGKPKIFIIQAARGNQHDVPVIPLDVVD
T1 sequence (P55212 194-293): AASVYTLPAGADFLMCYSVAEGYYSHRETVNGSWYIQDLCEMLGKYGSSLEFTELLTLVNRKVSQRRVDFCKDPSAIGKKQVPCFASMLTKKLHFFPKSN
Experiment: SPR co-injection with (VEID)2R110 over apo- and C163A-caspase-6
Format: binding
Settings: co-injected with (VEID)2R110, dissociation of both compound and substrate, read-out: apparent KD
Protocol: For SPR experiments, caspase-6 was cloned to include a C-terminal avi-tag (Avidity) and expressed and purified as above, except that biotin ligase (BirA) was co-expressed during fermentation. […] Avi-tagged zymogen C163A-caspase-6 was processed to mature C163A-caspase-6 by the addition of active caspase-3 and caspase-6. Chip preparation for neutravidin-based capture was performed as previously described using either a Biacore T100 or Biacore 3000 instrument (GE Healthcare). Running buffer was 50 mM HEPES pH 7.2, 100 mM MgSO4, 30 mM NaCl, 1 mM TCEP, 0.01% Triton X-100, 1% PEG-3350, 2.5% DMSO, and the instrument was set for 20 degrees C. After capture one flow cell of apo-caspase-6 was exposed to a continuous flow of 20 µM VEID-FMK. A rise in signal could be detected for the binding/reacting of the VEID-FMK and exposure was continued until no additional rise in response was observed (∼45 minutes) indicating full saturation of all binding sites. There was no observed decrease in signal upon washing, indicating the reaction was irreversible. […] Fluorescent substrates were too limiting in solubility and quantity to be added to the running buffer, so substrates were mixed at a concentration equal to their Kmapp with 3 and injected together over the indicated surfaces. […]

SMILES: COc1ccc(-c2cc(C(=O)N[C@@H](CO)Cc3cccc(C#N)c3)co2)cc1OC [Compound 3]
- Kd: ~200 nM

From PMC3515450, “Mechanistic and Structural Understanding of Uncompetitive Inhibitors of Caspase-6” (PLoS ONE, 2012)
